Measured values taken from patent US20140378416A1, “SILYL-CONTAINING HETEROCYCLIC COMPOUNDS AND METHODS OF USE THEREOF FOR THE TREATMENT OF VIRAL DISEASES” (priority 2011, published 2014).

How the values were obtained:
[1] = test system: HCV replicon 1b; assay: Cell-based HCV replicon assay (TaqMan), genotype 1b replicon; settings: Hepatitis C virus, 72 h, HCV 1b replicon cells, replicon RNA by TaqMan on day 3; EC90 = concentration for ΔCT=3.2 over baseline
[2] = test system: HCV replicon 1a; assay: Cell-based HCV replicon assay (TaqMan), genotype 1a replicon; settings: Hepatitis C virus, 72 h, HCV 1a replicon cells, replicon RNA by TaqMan on day 3; EC90 = concentration for ΔCT=3.2 over baseline
[3] = test system: HCV replicon 1a Y93H; assay: Cell-based HCV replicon assay (TaqMan), genotype 1a Y93H mutant replicon; settings: Hepatitis C virus, 72 h, read-out: 1a Y93H EC90, HCV 1a Y93H mutant replicon cells, replicon RNA by TaqMan on day 3; EC90 = concentration for ΔCT=3.2 over baseline
[4] = test system: HCV replicon 2b; assay: Cell-based HCV replicon assay (TaqMan), genotype 2b replicon; settings: Hepatitis C virus, 72 h, read-out: 2b EC90, HCV 2b replicon cells, replicon RNA by TaqMan on day 3; EC90 = concentration for ΔCT=3.2 over baseline

SMILES	EC90 [1]	EC90 [2]	EC90 [3]	EC90 [4]
COC(=O)N[C@H](C(=O)N1CCC[C@H]1c1ncc(-c2ccc(-c3ccc(-c4cnc([C@@H]5C[Si](C)(C)CN5C(=O)[C@@H](NC(=O)OC)[C@@H](C)OC)[nH]4)cc3)cc2)[nH]1)[C@@H](C)OC [Compound 25]	4.77 nM	0.72 nM	1000 nM	136 nM
COC(=O)N[C@H](C(=O)N1CCC[C@@H]1c1ncc(-c2ccc(-c3ccc(-c4cnc([C@H]5C[Si](C)(C)CN5C(=O)[C@@H](NC(=O)OC)C5CC5)[nH]4)cc3)cc2)[nH]1)C1CC1 [Compound 22]	1000 nM	1000 nM	1000 nM	1000 nM
COC(=O)N[C@H](C(=O)N1C[Si](C)(C)C[C@H]1c1ncc(-c2ccc(-c3ccc(-c4ncc([C@@H]5C[C@H]6C[C@H]6N5C(=O)[C@@H](NC(=O)OC)C(C)C)[nH]4)cc3)cc2)[nH]1)C(C)C [Compound 69]	0.019 nM	0.84 nM	> 100 nM	371 nM
COC(=O)N[C@H](C(=O)N1C[Si](C)(C)C[C@H]1c1ncc(-c2ccc(-c3ccc(-c4cnc([C@@H]5C[C@H]6C[C@H]6N5C(=O)[C@@H](NC(=O)OC)C(C)C)[nH]4)cc3)cc2)[nH]1)C(C)C [Compound 8]	0.002 nM	0.029 nM	> 100 nM	249 nM
COC(=O)N[C@@H](Cc1cccc(O)c1)C(=O)N1CCC[C@H]1c1ncc(-c2ccc(-c3ccc(-c4cnc([C@@H]5C[Si](C)(C)CN5C(=O)[C@H](Cc5cccc(O)c5)NC(=O)OC)[nH]4)cc3)cc2)[nH]1 [Compound 26]	387 nM	11.5 nM	1000 nM	1000 nM
CCN(CC)[C@@H](C(=O)N1C[Si](C)(C)C[C@H]1c1nc(Cl)c(-c2ccc(-c3ccc(-c4[nH]c([C@@H]5C[C@H]6C[C@H]6N5C(=O)[C@@H](c5ccccc5)N(CC)CC)nc4Cl)cc3)cc2)[nH]1)c1ccccc1 [Compound 55]	0.019 nM	0.047 nM	16.4 nM	0.16 nM
COC(=O)N[C@@H](Cc1ccccc1)C(=O)N1CCC[C@H]1c1ncc(-c2ccc(-c3ccc(-c4cnc([C@@H]5C[Si](C)(C)CN5C(=O)[C@H](Cc5ccccc5)NC(=O)OC)[nH]4)cc3)cc2)[nH]1 [Compound 13]	923 nM	29.8 nM	1000 nM	1000 nM
COC(=O)N[C@@H](C(=O)N1CCC[C@@H]1c1ncc(-c2ccc(-c3ccc(-c4cnc([C@H]5C[Si](C)(C)CN5C(=O)[C@H](NC(=O)OC)C5CCCOCC5)[nH]4)cc3)cc2)[nH]1)C1CCCOCC1 (some centres unmarked) [Compound 21]	18.7 nM	4.42 nM	1000 nM	204 nM
